Laboratory results: patent EP4678638A1, “NEW E3 UBIQUITIN LIGASE LIGAND, PROTEIN DEGRADATION AGENT AND USE THEREOF” (priority 2023, dated 2024)
Where two headings read alike, the source gives them in different places.

Experiments:
SR = assay: CCK-8 proliferation, SR; assay type: cell-based, Human; details: Homo sapiens, SR cells, read-out: Inhibitory activity (IC50, nM) on tumor cell proliferation, SR
Experimental: (§1) The tumor cells used herein were cultured in a cell culture medium listed in table A1 at 37°C in an incubator with 5% CO2. Prior to experimentation, all cell lines used were correctly identified by STR profiling, and tested negative for mycoplasma contamination using a mycoplasma detection kit through routine screenings. Table A1. Tumor cells and cell culture medium used in the present disclosure
(§2) IC50 values of the compounds of the present disclosure (including the compounds in Table 1, and compounds of examples) were measured using the Meilun Cell Counting Kit-8 kit from Dalian Meilun Biotech Co., Ltd. Assay details are as follows: tumor cells were seeded in a 96-well plate at a density listed in Table A2. After 24h, 100 µL of the inoculated cells were treated with 0.5µL of the compounds of the present disclosure (including the compounds in Tables 1 and 2, and compounds of examples) at 10 different successively decreasing concentrations (starting at the highest concentration of 10µM; 5-fold serial dilutions). After the cells were treated with the compounds of the present disclosure for a period of time, the cell viability detection reagent was added to the culture medium for cell viability assessment according to the instructions provided with the CCK-8 kit. […] The growth inhibition of the compounds of the present disclosure on cells was plotted by Prism Graphpad software, and the IC50 values of the compounds of the present disclosure were calculated therefrom. […] Seeding protocol and treatment time for tumor cells

MM.1S = assay: CCK-8 proliferation, MM.1S; assay type: cell-based; details: Homo sapiens, MM1.S, MM.1S cells, read-out: Inhibitory activity (IC50, nM) on tumor cell proliferation, MM.1S
Experimental: as §1, §2

MCF7 = assay: CCK-8 proliferation, MCF7 (MCF-7); assay type: cell-based; details: Homo sapiens, MCF7; Table B6, compounds designed based on the ALK inhibitors; MCF-7 cells; read-out: Inhibitory activity (IC50, nM) on tumor cell proliferation, MCF-7
Experimental: as §1, §2

H2228 = assay: CCK-8 proliferation, NCI-H2228 (H2228); assay type: cell-based; details: Homo sapiens, NCI-H2228; Table B6, compounds designed based on the ALK inhibitors; H2228 cells; read-out: Inhibitory activity (IC50, nM) on tumor cell proliferation, H2228
Experimental: as §1, §2

H1975 = assay: CCK-8 proliferation, NCI-H1975 (H1975); assay type: cell-based, Human; details: Homo sapiens, NCI-H1975; Table B6, compounds designed based on the ALK inhibitors; H1975 cells; read-out: Inhibitory activity (IC50, nM) on tumor cell proliferation, H1975
Outline: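 Tumor cells were cultured at 37°C with 5% CO2, seeded, and after 24h treated with compounds at 10 concentrations starting at 10µM (5-fold serial dilutions).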

[1] = Table B10, compounds designed based on the IRAK4 inhibitors
[2] = Table B6, compounds designed based on the ALK inhibitors

Which IC50 (SR; [1]) does the source give for `O=C1CCC(c2ccc(CN3CCN(Cc4ccc5c(c4)nc(NC(=O)c4cccc(C(F)(F)F)c4)n5[C@H]4CC[C@@H](CO)CC4)CC3)cc2)C(=O)N1` (stereo partly drawn) [GT-04978, N-(5-((4-(4-(2,6-dioxopiperidin-3-yl)benzyl)piperazin-1-yl)methyl)-1-((1s,4s)-4-(hydroxymethyl)cyclohexyl) -1H-benzo[d]imidazol-2-yl)-3-(trifluoromethyl)benzamide] here?
Its IC50 is 100 to 500 nM.

What about the IC50 (MM.1S; [1]) of the same compound?
Its IC50 is 500 to 1000 nM.

How did the IC50 (MM.1S; [1]) turn out when `O=C1CCN(c2ccc(CN3CCC(n4cc(NC(=O)c5cnn6ccc(N7C[C@H]8C[C@@H]7CO8)nc56)c(C(F)F)n4)CC3)nc2)C(=O)N1` [GT-05053, 5-((1R,4R)-2-oxa-5-azabicyclo[2.2.1]heptan-5-yl)-N-(3-(difluoromethyl)-1-(1-((5-(2,4-dioxotetrahydropyrimidin-1(2H)-yl)pyridin-2-yl)methyl)piperidin-4-yl)-1H-pyrazol-4-yl)pyrazolo[1,5-a]pyrimidine-3-carboxamide] was run?
Its IC50 is 500 to 1000 nM.

Which results are given for `CCc1cc2c(cc1N1CCC(N3CCN(Cc4ccc(N5CCC(=O)NC5=O)cc4)CC3)CC1)C(C)(C)c1[nH]c3cc(C#N)ccc3c1C2=O` [GT-07307, 8-(4-(4-(4-(2,4-dioxotetrahydropyrimidin-1(2H)-yl)benzyl)piperazin-1-yl)piperidin-1-yl)-9-ethyl-6,6-dimethyl-11-oxo-6,11-dihydro-5H-benzo[b]carbazole-3-carbonitrile]?
IC50 (MCF7): 100 to 500 nM; IC50 (SR; [2]): 10 to 50 nM; IC50 (H2228): 100 to 500 nM

For `COc1cc(N2CCN(Cc3ccc(N4CCC(=O)NC4=O)nc3)CC2)ccc1Nc1ncc(Cl)c(Nc2ccccc2P(C)(C)=O)n1` [GT-07350, 1-(5-((4-(4-((5-chloro-4-((2-(dimethylphosphoryl)phenyl)amino)pyrimidin-2-yl)amino)-3-methoxyphenyl)piperazin-1-yl)methyl)pyridin-2-yl)dihydropyrimidine-2,4(1H,3H)-dione], which IC50 (H1975) is on record?
Its IC50 is 500 to 1000 nM.

And the IC50 (SR; [2])?
The IC50 was 50 to 100 nM.

And the IC50 (H2228)?
The IC50 was 100 to 500 nM.

Which results are given for `Cc1cc(Nc2ncc(Cl)c(Nc3ccccc3S(=O)(=O)C(C)C)n2)c(OC(C)C)cc1C1CCN(Cc2cncc(N3CCC(=O)NC3=O)c2)CC1` [GT-07597, 1-(5-((4-(4-((5-chloro-4-((2-(isopropylsulfonyl)phenyl)amino)pyrimidin-2-yl)amino)-5-isopropoxy-2-methylphenyl)piperidin-1-yl)methyl)pyridin-3-yl)dihydropyrimidine-2,4(1H,3H)-dione]?
IC50 (MCF7): 500 to 1000 nM; IC50 (SR; [2]): 10 to 50 nM; IC50 (H2228): 50 to 100 nM; IC50 (MM.1S; [2]): 500 to 1000 nM

Which results are given for `Cc1cc(Nc2ncc(Cl)c(Nc3ccccc3S(=O)(=O)C(C)C)n2)c(OC(C)C)cc1C1CCN(Cc2ccnc(C3CCC(=O)NC3=O)c2)CC1` (stereo not drawn) [GT-07599, 3-(4-((4-(4-((5-chloro-4-((2-(isopropylsulfonyl)phenyl)amino)pyrimidin-2-yl)amino)-5-isopropoxy-2-methylphenyl)piperidin-1-yl)methyl)pyridin-2-yl)piperidine-2,6-dione]?
IC50 (MCF7): 100 to 500 nM; IC50 (SR; [2]): 10 to 50 nM; IC50 (H2228): 100 to 500 nM; IC50 (MM.1S; [2]): 500 to 1000 nM

What does the source list for `COc1cc(N2CCC(N(C)Cc3cc(N4CCC(=O)NC4=O)ncc3F)CC2)ccc1Nc1ncc(Cl)c(Nc2ccccc2P(C)(C)=O)n1` [GT-07693, 1-(4-(((1-(4-((5-chloro-4-((2-(dimethylphosphoryl)phenyl)amino)pyrimidin-2-yl)amino)-3-methoxyphenyl)piperidin-4-yl)(methyl)amino)methyl)-5-fluoropyridin-2-yl)dihydropyrimidine-2,4(1H,3H)-dione]?
IC50 (H1975): 100 to 500 nM; IC50 (MCF7): 100 to 500 nM; IC50 (SR; [2]): 10 to 50 nM; IC50 (H2228): 100 to 500 nM

With `CCc1cc2c(cc1N1CCC(N3CCN(Cc4cc(N5CCC(=O)NC5=O)ncc4F)CC3)CC1)C(C)(C)c1[nH]c3cc(C#N)ccc3c1C2=O` [GT-07700, 8-(4-(4-((2-(2,4-dioxotetrahydropyrimidin-1(2H)-yl)-5-fluoropyridin-4-yl)methyl)piperazin-1-yl)piperidin-1-yl)-9-ethyl-6,6-dimethyl-11-oxo-6,11-dihydro-5H-benzo[b]carbazole-3-carbonitrile] as the compound, how does the IC50 (MCF7) read?
Its IC50 is 500 to 1000 nM.

And the IC50 (SR; [2])?
The IC50 was 1 to 10 nM.

What about the IC50 (H2228) of the same compound?
The IC50 was 50 to 100 nM.

For `CCc1cc2c(cc1N1CCC(N3CCN(Cc4ccnc(N5CCC(=O)NC5=O)c4)CC3)CC1)C(C)(C)c1[nH]c3cc(C#N)ccc3c1C2=O` [GT-07701, 8-(4-(4-((2-(2,4-dioxotetrahydropyrimidin-1(2H)-yl)pyridin-4-yl)methyl)piperazin-1-yl)piperidin-1-yl)-9-ethyl-6,6-dimethyl-11-oxo-6,11-dihydro-5H-benzo[b]carbazole-3-carbonitrile], which IC50 (MCF7) is on record?
Its IC50 is 500 to 1000 nM.

What about the IC50 (SR; [2]) of the same compound?
The IC50 was 1 to 10 nM.

And the IC50 (H2228)?
Its IC50 is 50 to 100 nM.

`CCc1cc2c(cc1N1CCC(N3CCN(Cc4ccnc(C5CCC(=O)NC5=O)c4)CC3)CC1)C(C)(C)c1[nH]c3cc(C#N)ccc3c1C2=O` (stereo not drawn) [GT-07704, 8-(4-(4-((2-(2,6-dioxopiperidin-3-yl)pyridin-4-yl)methyl)piperazin-1-yl)piperidin-1-yl)-9-ethyl-6,6-dimethyl-11-oxo-6,11-dihydro-5H-benzo[b]carbazole-3-carbonitrile] was tested. Which IC50 (H1975) did it give?
Its IC50 is 500 to 1000 nM.

What about the IC50 (SR; [2]) of the same compound?
The IC50 was 1 to 10 nM.

And the IC50 (H2228)?
Its IC50 is 50 to 100 nM.

Which IC50 (H1975) does the source give for `CCc1cc2c(cc1N1CCC(N3CCN(Cc4ccc(C5CCC(=O)NC5=O)cn4)CC3)CC1)C(C)(C)c1[nH]c3cc(C#N)ccc3c1C2=O` (stereo not drawn) [GT-07705, 8-(4-(4-((5-(2,6-dioxopiperidin-3-yl)pyridin-2-yl)methyl)piperazin-1-yl)piperidin-1-yl)-9-ethyl-6,6-dimethyl-11-oxo-6,11-dihydro-5H-benzo[b]carbazole-3-carbonitrile] here?
Its IC50 is 500 to 1000 nM.

What about the IC50 (MCF7) of the same compound?
Its IC50 is 100 to 500 nM.

What about the IC50 (SR; [2]) of the same compound?
Its IC50 is 1 to 10 nM.

And the IC50 (H2228)?
Its IC50 is 50 to 100 nM.

For `COc1cc(N2CCN(Cc3cc(N4CCC(=O)NC4=O)ncc3F)CC2)ccc1Nc1ncc(Cl)c(Nc2ccccc2P(C)(C)=O)n1` [GT-07707, 1-(4-((4-(4-((5-chloro-4-((2-(dimethylphosphoryl)phenyl)amino)pyrimidin-2-yl)amino)-3-methoxyphenyl)piperazin-1-yl)methyl)-5-fluoropyridin-2-yl)dihydropyrimidine-2,4(1H,3H)-dione], which IC50 (H1975) is on record?
Its IC50 is 500 to 1000 nM.

And the IC50 (MCF7)?
Its IC50 is 500 to 1000 nM.

What about the IC50 (SR; [2]) of the same compound?
Its IC50 is 10 to 50 nM.

And the IC50 (H2228)?
Its IC50 is 100 to 500 nM.

Which IC50 (H1975) does the source give for `COc1cc(N2CCN(Cc3ccnc(N4CCC(=O)NC4=O)c3)CC2)ccc1Nc1ncc(Cl)c(Nc2ccccc2P(C)(C)=O)n1` [GT-07708, 1-(4-((4-(4-((5-chloro-4-((2-(dimethylphosphoryl)phenyl)amino)pyrimidin-2-yl)amino)-3-methoxyphenyl)piperazin-1-yl)methyl)pyridin-2-yl)dihydropyrimidine-2,4(1H,3H)-dione] here?
The IC50 was 100 to 500 nM.

What about the IC50 (MCF7) of the same compound?
The IC50 was 500 to 1000 nM.

What about the IC50 (SR; [2]) of the same compound?
The IC50 was 10 to 50 nM.

What about the IC50 (H2228) of the same compound?
Its IC50 is 100 to 500 nM.

What does the source list for `COc1cc(N2CCN(Cc3cncc(N4CCC(=O)NC4=O)c3)CC2)ccc1Nc1ncc(Cl)c(Nc2ccccc2P(C)(C)=O)n1` [GT-07709, 1-(5-((4-(4-((5-chloro-4-((2-(dimethylphosphoryl)phenyl)amino)pyrimidin-2-yl)amino)-3-methoxyphenyl)piperazin-1-yl)methyl)pyridin-3-yl)dihydropyrimidine-2,4(1H,3H)-dione]?
IC50 (SR; [2]): 50 to 100 nM; IC50 (H2228): 500 to 1000 nM

How did the IC50 (H1975) turn out when `COc1cc(N2CCN(Cc3cc(C4CCC(=O)NC4=O)cnc3F)CC2)ccc1Nc1ncc(Cl)c(Nc2ccccc2P(C)(C)=O)n1` (stereo not drawn) [GT-07710, 3-(5-((4-(4-((5-chloro-4-((2-(dimethylphosphoryl)phenyl)amino)pyrimidin-2-yl)amino)-3-methoxyphenyl)piperazin-1-yl)methyl)-6-fluoropyridin-3-yl)piperidine-2,6-dione] was run?
Its IC50 is 500 to 1000 nM.

And the IC50 (MCF7)?
The IC50 was 100 to 500 nM.

And the IC50 (SR; [2])?
Its IC50 is 10 to 50 nM.

What about the IC50 (H2228) of the same compound?
The IC50 was 500 to 1000 nM.

Which results are given for `COc1cc(N2CCN(Cc3ccnc(C4CCC(=O)NC4=O)c3)CC2)ccc1Nc1ncc(Cl)c(Nc2ccccc2P(C)(C)=O)n1` (stereo not drawn) [GT-07712, 3-(4-((4-(4-((5-chloro-4-((2-(dimethylphosphoryl)phenyl)amino)pyrimidin-2-yl)amino)-3-methoxyphenyl)piperazin-1-yl)methyl)pyridin-2-yl)piperidine-2,6-dione]?
IC50 (H1975): 500 to 1000 nM; IC50 (SR; [2]): 10 to 50 nM; IC50 (H2228): 100 to 500 nM
